Here are results for eleven molecules from ChEMBL document CHEMBL1130318, “Inhibition of stromelysin-1 (MMP-3) by P1'-biphenylylethyl carboxyalkyl dipeptides” (J Med Chem, 1997).

Where only a bound is given, the exact number is not on record here.

The target of one data set is Stromelysin-1 (Homo sapiens, UniProt P08254).
Data set [1] addresses 72 kDa type IV collagenase (Homo sapiens, UniProt P08253).
Description: Inhibition of gelatinase A (Matrix metalloprotease-2)
For the next data set, the system named is Mus musculus. Description: Effective dose for inhibition of MMP-3 mediated degradation of radiolabeled transferrin in the mouse pleural cavity (PLCAV) after 60 mpk oral dose of inhibitor. It counts as functional.
The nature of data set [2]: Plasma half-life was measured in rat after administration of compound 20 mg/kg intravenously. Type of data set: ADME, organism-based. Details: dose 20 mg/kg, route intravenous. The following applies: iv.
Data set [3] can be described thus: Clearance was measured in rabbit after administration of compound 12 mg/kg intravenously. The following applies: in vivo, iv.
A short description of data set [4]: Percent oral bioavailability was measured in rat after administration of compound 20 mg/kg perorally. It counts as ADME, organism-based. The following applies: in vivo.
A short description of data set [5]: Volume distribution was measured in mouse after administration of compound 20 mg/kg intravenously. Type of data set: ADME, organism-based. Also noted: dose 20 mg/kg, route intravenous. The following applies: in vivo, iv, read-out: Vdss.
A short description of data set [6]: Clearance was measured in rat after administration of compound 20 mg/kg intravenously. It counts as ADME, organism-based. Details: dose 20 mg/kg, route intravenous. The conditions noted are these: in vivo, iv.
A short description of data set [7]: Plasma half-life was measured in mouse after administration of compound 20 mg/kg intravenously. Also noted: dose 20 mg/kg, route intravenous. It counts as ADME, organism-based. The following applies: iv.
The nature of data set [8]: Percent oral bioavailability was measured in mouse after administration of compound 20 mg/kg perorally. The following applies: in vivo. It counts as ADME, organism-based.
Data set [9] is described as follows: Volume distribution was measured in rabbit after administration of compound 12 mg/kg intravenously. The following applies: in vivo, iv, read-out: Vdss.
Data set [10] can be described thus: Volume distribution was measured in rat after administration of compound 20 mg/kg intravenously. The following applies: in vivo, iv, read-out: Vdss. It counts as ADME, organism-based. Details: dose 20 mg/kg, route intravenous.
Data set [11] can be described thus: Clearance was measured in mouse after administration of compound 20 mg/kg intravenously. Type of data set: ADME, organism-based. Details: dose 20 mg/kg, route intravenous. The conditions noted are these: in vivo, iv.
Data set [12] can be described thus: Plasma half-life was measured in rabbit after administration of compound 12 mg/kg intravenously. The conditions noted are these: iv.

Sequence of 72 kDa type IV collagenase (P08253 whole entry): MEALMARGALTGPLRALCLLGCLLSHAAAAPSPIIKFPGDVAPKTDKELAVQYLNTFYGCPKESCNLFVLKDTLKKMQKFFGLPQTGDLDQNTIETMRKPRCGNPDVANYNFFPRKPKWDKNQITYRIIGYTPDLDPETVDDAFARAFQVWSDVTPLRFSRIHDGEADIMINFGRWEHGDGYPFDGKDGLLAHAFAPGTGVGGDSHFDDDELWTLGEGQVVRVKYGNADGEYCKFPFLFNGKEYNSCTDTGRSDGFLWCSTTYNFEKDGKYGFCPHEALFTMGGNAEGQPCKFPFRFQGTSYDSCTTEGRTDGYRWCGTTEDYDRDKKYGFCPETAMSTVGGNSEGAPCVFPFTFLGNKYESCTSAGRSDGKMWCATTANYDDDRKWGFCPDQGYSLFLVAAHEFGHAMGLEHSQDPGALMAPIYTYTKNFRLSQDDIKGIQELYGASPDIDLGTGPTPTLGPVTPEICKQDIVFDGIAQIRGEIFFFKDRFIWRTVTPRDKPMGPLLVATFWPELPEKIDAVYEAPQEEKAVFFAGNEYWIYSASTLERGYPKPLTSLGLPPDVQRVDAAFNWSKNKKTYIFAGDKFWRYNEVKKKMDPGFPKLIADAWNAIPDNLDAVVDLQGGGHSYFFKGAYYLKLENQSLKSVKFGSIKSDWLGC
Sequence of Stromelysin-1 (P08254 whole entry): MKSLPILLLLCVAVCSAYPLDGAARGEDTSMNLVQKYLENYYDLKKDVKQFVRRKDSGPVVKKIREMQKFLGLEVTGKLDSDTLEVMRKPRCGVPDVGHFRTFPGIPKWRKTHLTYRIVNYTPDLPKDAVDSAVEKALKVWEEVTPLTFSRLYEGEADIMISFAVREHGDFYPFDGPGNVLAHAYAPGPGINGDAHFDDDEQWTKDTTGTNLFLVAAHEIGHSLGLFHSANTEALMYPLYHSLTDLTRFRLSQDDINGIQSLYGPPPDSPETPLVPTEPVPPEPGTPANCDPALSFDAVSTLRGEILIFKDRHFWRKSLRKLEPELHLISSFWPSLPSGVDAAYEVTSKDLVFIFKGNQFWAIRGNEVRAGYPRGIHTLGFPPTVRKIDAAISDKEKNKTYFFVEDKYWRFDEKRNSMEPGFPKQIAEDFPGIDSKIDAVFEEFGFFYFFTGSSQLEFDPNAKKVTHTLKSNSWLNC
Description for Stromelysin-1: Inhibition of human stromelysin-1 (Matrix metalloprotease-3)

As to `CCCC[C@@H](C[C@@H](CCc1ccc(-c2ccccc2F)cc1)C(=O)N[C@H](C(=O)NC)C(C)(C)C)C(=O)O`, the Ki – broadly, the equilibrium dissociation constant of an inhibitor or competing ligand from its target – amounted to 11 nM on Stromelysin-1 and 61 nM in data set [1].
For `CCCC[C@@H](C[C@@H](CCc1ccc(-c2ccc(F)cc2)cc1)C(=O)N[C@H](C(=O)Nc1ccccc1)C(C)(C)C)C(=O)O`, in that order: 4 nM and 150 nM.
For `CCCC[C@@H](C[C@@H](CCc1ccc(-c2ccc([S+](C)[O-])cc2)cc1)C(=O)N[C@H](C(=O)NC)C(C)(C)C)C(=O)O` (stereo not given in full), the figures for the inhibitory constant (Ki) (at Stromelysin-1; in data set [1]) were 52 nM and 30 nM, respectively.
In the same order, the values of `CCCC[C@@H](C[C@@H](CCc1ccc(-c2cccc(F)c2)cc1)C(=O)N[C@H](C(=O)NC)C(C)(C)C)C(=O)O` are 21 nM and 48 nM.
For `CCCC[C@@H](C[C@@H](CCc1ccc(-c2ccc(-c3ccccc3)cc2)cc1)C(=O)N[C@H](C(=O)NC)C(C)(C)C)C(=O)O`, in that order: 39 nM and 84 nM.
For the molecule `CCCC[C@@H](C[C@@H](CCc1ccc(-c2ccc(C(F)(F)F)cc2)cc1)C(=O)N[C@H](C(=O)NC)C(C)(C)C)C(=O)O`, the Ki was 37 nM on Stromelysin-1 and 39 nM in data set [1].
Consider `CCCc1ccc(CC[C@H](C[C@H](C)C(=O)O)C(=O)N[C@@H](CC(C)C)C(=O)Nc2ccccc2)cc1`, for which the ED50 (commonly the midpoint of the dose-response relation) in the data set on Mus musculus is 32 mg/kg.
On the same count and under the same terms, for `CCCc1ccc(CC[C@H](N[C@H](C)C(=O)O)C(=O)N[C@@H](CC(C)C)C(=O)Nc2ccccc2)cc1` the value was 65 mg/kg.
Take `CCCC[C@@H](C[C@@H](CCc1ccc(OCc2ccccc2)cc1)C(=O)N[C@H](C(=O)NC)C(C)(C)C)C(=O)O`: the Ki at Stromelysin-1 came to 74 nM; in data set [1], 210 nM.
Take `CCCC[C@@H](C[C@@H](CCc1ccc(-c2ccc(F)cc2)cc1)C(=O)N[C@H](C(=O)NC)C(C)(C)C)C(=O)O`: the half-life (in general, the time needed for the level to fall by half in the phase considered) in data set [2] was 4.4 h; in [7], 2.7 h; in [12], 0.9 h. For the same molecule, the clearance (commonly a measure of how efficiently the substance is removed, as volume per time) in [3] came out at 7.6 mL/min/kg; in data set [6], 1.3 mL/min/kg; in data set [11], 1.1 mL/min/kg. Further, the inhibition constant Ki came to 10 nM at Stromelysin-1 and 17 nM in [1]. Further, the values for the bioavailability in data set [4] and in data set [8] were 60% and 78%, respectively. Further, the Vd in data set [5] stood at 0.2 L/kg; in data set [9] it was 0.2 L/kg; in data set [10] it was 0.32 L/kg.
In the case of `CC(C)C[C@H](NC(=O)[C@H](CCc1ccccc1)N[C@H](C)C(=O)O)C(=O)Nc1ccccc1` [L-696418], the ED50 with Mus musculus is more than 100 mg/kg.
